Measurements reported in publication PMC11345841, “Exploring 2-Sulfonylpyrimidine Warheads as Acrylamide Surrogates for Targeted Covalent Inhibition: A BTK Story” (Journal of Medicinal Chemistry, 2024).
Where two headings read alike, the source gives them in different places.

Tests used:
EGFR(L747-T751del,Sins) = assay: KINOMEscan ScanTK; type: binding; conditions: for % difference (compound - Ib %Control) / %Control: @1000nM
[1] = target: T1, ABL1(H396P)-phosphorylated (Homo sapiens, UniProt P00519, H396P); assay: KINOMEscan ScanTK; type: binding
T1 construct: purchased Eurofins DiscoverX KINOMEscan (scanTK)

FLT4 = target: T2, FLT4 (Homo sapiens, UniProt P35916); assay: KINOMEscan ScanTK; type: binding
T2 construct: purchased Eurofins DiscoverX KINOMEscan (scanTK)

TMD8 cells = assay: Annexin V/propidium iodide staining (apoptosis, viability); type: cell-based, human; conditions: 72 h
Method: We tested the effects of compounds in TMD8 cells, derived from an activated B-cell DLBCL. These cells have constitutive signaling via the BCR and additionally carry MYD88^L265P and CD79B mutations which give rise to My-T-BCR complex. […] Apoptosis was quantified after exposure of cells to compounds for 72 h using annexin V/PI staining and flow cytometry (Figure 3E, Figure S4).
Cells were washed in phosphate-buffered saline and resuspended in 300 μL of annexin V staining buffer (10 mM HEPES HCl (pH 7.4), 140 mM NaCl, 2.5 mM CaCl2) supplemented with 2.5 μg/mL fluorescein isothiocyanate-labeled annexin V (kind gift from Dr Patrick Duriez, Protein Core Facility, University of Southampton) and 12.5 μM propidium iodide (Invitrogen). Cells were analyzed by flow cytometry (Canto II system, BD Biosciences) and the percentage of viable cells was determined by calculating the proportion of Annexin V-/PI-cells as a percentage of all cells (results for untreated cells at 72 h set to 100%).

[2] = target: T3, JAK3(JH1domain-catalytic) (Homo sapiens, UniProt P52333); assay: KINOMEscan ScanTK; type: binding; conditions: for difference in %Control from compound Ib at 1 µM / remaining binding at 1 µM: JAK3(JH1domain-catalytic); for inhibition at 1 µM: ScanTK
T3 construct: JAK3(JH1domain-catalytic); purchased Eurofins DiscoverX KINOMEscan (scanTK)

LCK = target: T4, LCK (Homo sapiens, UniProt P06239); assay: KINOMEscan ScanTK; type: binding
T4 construct: purchased Eurofins DiscoverX KINOMEscan (scanTK)

AXL = target: T5, AXL (Homo sapiens, UniProt P30530); assay: KINOMEscan ScanTK; type: binding
T5 construct: purchased Eurofins DiscoverX KINOMEscan (scanTK)
T5 sequence (P30530 26-894): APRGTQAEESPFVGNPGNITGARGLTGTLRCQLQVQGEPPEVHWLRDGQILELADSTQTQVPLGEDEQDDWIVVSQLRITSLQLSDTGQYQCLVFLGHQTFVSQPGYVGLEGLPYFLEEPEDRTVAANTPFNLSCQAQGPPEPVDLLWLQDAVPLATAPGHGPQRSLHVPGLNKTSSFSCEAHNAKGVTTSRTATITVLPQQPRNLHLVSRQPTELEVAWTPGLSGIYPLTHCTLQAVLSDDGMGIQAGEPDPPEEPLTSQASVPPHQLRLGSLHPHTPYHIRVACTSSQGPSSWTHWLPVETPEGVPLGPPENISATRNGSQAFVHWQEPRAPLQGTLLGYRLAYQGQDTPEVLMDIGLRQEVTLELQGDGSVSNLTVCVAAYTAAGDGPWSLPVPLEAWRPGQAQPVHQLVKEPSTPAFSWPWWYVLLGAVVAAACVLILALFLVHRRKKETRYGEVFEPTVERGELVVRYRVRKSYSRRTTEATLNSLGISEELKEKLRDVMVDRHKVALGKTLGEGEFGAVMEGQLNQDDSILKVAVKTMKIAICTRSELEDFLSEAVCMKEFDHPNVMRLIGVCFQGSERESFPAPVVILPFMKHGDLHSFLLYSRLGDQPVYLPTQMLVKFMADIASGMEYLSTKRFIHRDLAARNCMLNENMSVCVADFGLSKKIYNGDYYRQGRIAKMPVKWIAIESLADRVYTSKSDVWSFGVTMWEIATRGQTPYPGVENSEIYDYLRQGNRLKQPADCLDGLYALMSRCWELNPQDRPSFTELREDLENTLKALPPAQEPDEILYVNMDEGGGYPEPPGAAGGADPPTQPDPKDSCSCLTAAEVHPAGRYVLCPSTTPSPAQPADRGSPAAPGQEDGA

TRKA = target: T6, TRKA (Homo sapiens, UniProt P04629); assay: KINOMEscan ScanTK; type: binding; conditions: TRKA
T6 construct: purchased Eurofins DiscoverX KINOMEscan (scanTK)

FLT3(D835H) = target: T7, FLT3(D835H) (Homo sapiens, UniProt P36888, D835H); assay: KINOMEscan ScanTK; type: binding
T7 construct: purchased Eurofins DiscoverX KINOMEscan (scanTK)
T7 sequence (P36888 27-993 D835H): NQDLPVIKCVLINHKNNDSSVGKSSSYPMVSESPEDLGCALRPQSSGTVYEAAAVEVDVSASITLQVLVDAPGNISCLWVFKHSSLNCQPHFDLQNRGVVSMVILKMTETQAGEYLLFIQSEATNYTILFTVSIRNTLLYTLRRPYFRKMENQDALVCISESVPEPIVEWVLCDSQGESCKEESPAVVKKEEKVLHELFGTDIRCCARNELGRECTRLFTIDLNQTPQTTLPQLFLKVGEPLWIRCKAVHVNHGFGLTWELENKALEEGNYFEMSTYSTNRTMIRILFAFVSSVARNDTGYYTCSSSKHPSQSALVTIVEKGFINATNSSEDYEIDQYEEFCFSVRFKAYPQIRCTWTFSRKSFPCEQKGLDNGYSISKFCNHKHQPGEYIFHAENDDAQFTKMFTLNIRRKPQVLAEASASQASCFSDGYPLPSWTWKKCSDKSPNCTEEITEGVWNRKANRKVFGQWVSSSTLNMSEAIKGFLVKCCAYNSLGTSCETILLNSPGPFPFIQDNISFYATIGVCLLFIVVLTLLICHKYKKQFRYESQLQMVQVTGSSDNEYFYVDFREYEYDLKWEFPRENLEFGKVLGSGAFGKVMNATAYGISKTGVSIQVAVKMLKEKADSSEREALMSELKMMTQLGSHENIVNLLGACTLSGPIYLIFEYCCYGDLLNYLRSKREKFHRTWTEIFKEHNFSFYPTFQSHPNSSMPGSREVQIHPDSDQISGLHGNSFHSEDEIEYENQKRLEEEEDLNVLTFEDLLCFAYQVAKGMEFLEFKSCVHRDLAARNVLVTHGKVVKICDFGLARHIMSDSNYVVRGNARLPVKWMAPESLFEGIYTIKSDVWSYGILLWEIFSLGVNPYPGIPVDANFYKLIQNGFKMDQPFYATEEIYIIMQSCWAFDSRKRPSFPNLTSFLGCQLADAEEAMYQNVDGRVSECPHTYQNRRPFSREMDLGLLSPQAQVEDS

T2 sequence (P35916 25-1363): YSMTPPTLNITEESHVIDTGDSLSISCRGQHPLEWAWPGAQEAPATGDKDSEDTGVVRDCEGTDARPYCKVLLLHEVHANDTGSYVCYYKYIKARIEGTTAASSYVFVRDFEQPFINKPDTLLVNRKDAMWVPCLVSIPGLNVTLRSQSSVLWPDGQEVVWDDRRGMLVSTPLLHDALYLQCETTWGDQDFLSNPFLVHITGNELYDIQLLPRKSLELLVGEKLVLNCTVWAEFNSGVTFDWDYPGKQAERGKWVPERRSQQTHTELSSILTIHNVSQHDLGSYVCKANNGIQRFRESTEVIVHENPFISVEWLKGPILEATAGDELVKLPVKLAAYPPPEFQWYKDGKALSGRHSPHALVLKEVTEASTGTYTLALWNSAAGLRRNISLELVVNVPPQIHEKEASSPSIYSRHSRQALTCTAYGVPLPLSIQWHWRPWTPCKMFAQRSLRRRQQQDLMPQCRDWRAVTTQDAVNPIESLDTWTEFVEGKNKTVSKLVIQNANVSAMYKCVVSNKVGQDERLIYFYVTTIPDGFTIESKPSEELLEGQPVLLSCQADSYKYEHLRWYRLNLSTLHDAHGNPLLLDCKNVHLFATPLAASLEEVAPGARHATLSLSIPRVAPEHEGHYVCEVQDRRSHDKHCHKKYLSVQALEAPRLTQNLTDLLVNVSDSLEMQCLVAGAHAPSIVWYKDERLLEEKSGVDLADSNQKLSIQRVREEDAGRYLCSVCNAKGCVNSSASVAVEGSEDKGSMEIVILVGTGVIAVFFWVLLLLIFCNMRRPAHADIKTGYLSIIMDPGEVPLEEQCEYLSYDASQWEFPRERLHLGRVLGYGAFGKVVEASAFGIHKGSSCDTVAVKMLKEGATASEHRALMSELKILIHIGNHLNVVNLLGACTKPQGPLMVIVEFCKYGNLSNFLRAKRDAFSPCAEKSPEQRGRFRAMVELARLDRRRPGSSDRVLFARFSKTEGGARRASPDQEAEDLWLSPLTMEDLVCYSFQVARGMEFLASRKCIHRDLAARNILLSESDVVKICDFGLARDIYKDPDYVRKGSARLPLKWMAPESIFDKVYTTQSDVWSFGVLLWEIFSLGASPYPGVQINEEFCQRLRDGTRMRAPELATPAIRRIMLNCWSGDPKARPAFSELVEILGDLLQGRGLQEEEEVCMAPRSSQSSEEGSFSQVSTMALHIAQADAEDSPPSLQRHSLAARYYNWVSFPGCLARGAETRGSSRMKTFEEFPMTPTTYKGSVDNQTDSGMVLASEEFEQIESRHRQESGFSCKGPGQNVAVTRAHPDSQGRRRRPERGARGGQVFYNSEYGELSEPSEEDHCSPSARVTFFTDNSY
T6 sequence (P04629 33-796): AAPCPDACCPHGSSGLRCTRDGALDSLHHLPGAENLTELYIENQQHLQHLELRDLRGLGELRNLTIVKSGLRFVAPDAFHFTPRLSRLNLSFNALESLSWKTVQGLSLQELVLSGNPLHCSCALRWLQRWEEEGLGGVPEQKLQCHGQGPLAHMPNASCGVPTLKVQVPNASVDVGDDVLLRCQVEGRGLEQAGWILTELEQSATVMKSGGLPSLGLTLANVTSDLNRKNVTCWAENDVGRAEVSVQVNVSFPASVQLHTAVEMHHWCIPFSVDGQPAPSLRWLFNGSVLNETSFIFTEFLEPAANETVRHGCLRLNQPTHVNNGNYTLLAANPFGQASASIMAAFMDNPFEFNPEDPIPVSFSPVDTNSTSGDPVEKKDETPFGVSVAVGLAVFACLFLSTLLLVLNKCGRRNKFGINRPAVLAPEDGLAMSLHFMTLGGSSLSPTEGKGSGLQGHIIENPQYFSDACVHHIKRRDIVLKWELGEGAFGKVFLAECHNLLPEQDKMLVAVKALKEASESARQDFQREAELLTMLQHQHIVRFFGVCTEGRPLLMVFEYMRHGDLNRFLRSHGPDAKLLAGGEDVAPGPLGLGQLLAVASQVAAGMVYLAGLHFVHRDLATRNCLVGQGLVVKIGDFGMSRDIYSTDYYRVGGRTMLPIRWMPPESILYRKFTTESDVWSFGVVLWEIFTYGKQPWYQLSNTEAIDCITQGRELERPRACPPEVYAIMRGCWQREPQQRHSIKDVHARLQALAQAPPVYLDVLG
T4 sequence (P06239 whole entry): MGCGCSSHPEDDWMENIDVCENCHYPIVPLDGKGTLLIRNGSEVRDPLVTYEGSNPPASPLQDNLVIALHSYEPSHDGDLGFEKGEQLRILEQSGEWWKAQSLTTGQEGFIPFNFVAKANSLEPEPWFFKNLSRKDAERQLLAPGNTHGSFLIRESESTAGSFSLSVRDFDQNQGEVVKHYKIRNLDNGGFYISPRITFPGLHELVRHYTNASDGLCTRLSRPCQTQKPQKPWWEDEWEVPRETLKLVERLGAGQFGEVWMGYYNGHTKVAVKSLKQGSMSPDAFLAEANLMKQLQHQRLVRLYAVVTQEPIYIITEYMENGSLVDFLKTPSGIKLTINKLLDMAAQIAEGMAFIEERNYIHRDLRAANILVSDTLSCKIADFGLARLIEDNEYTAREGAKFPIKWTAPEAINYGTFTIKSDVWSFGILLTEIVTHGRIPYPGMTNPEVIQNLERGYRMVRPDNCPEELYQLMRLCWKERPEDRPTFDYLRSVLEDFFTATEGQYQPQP
T3 sequence (P52333 822-1124 limits assumed): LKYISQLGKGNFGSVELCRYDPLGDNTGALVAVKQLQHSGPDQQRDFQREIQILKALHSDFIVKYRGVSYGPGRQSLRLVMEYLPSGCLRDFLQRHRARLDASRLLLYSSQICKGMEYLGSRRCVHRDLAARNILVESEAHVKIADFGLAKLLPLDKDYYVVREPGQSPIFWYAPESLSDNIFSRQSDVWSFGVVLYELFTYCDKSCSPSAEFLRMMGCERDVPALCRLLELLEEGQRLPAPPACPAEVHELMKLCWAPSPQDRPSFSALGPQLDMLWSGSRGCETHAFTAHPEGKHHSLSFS

SMILES | %Control @1000nM (EGFR(L747-T751del,Sins)) | % difference (compound - Ib %Control) (EGFR(L747-T751del,Sins)) | %Control (EGFR(L747-T751del,Sins)) | %Control difference versus compound Ib at 1 µM ([1]; @1000nM) | remaining binding at 1 µM ([1]; @1000nM, read-out: %Control) | remaining binding at 1 µM ([1]; read-out: %Control @1000nM) | difference in %Control from compound Ib at 1 µM (FLT4; @1000nM) | remaining binding at 1 µM (FLT4; @1000nM, read-out: %Control) | remaining binding at 1 µM (FLT4; read-out: %Control @1000nM) | induction of apoptosis (TMD8 cells) | difference in %Control from compound Ib at 1 µM ([2]; @1000nM) | remaining binding at 1 µM ([2]; @1000nM, read-out: %Control) | remaining binding at 1 µM ([2]; read-out: %Control @1000nM) | inhibition at 1 µM [2] | remaining binding at 1 µM (LCK; @1000nM, read-out: %Control) | remaining binding at 1 µM (LCK; read-out: %Control @1000nM) | difference in %Control versus compound Ib at 1 µM (AXL; @1000nM) | remaining binding at 1 µM (AXL; @1000nM, read-out: %Control) | remaining binding at 1 µM (AXL; read-out: %Control @1000nM) | difference in % of control versus compound Ib at 1 µM (TRKA; @1000nM) | other results
COC(=O)c1cnc(S(C)(=O)=O)nc1N1CCCC(n2nc(-c3ccc(Oc4ccccc4)cc3)c3c(N)ncnc32)C1 (stereo not shown) [Compound 8b, Methyl 4-(3-(4-Amino-3-(4-phenoxyphenyl)-1H-pyrazolo[3,4-d]pyrimidin-1-yl)piperidin-1-yl)-2-(methylsulfonyl)pyrimidine-5-carboxylate] | 65% | 62.4% | 65% | 12% | 92% | 92% | 62% | 89% | 89% | induced apoptosis | 94.5% | 100% | 100% | < 1% | 8.3% | 8.3% | 25% | 100% | 100% | 4% | remaining binding at 1 µM (TRKA; @1000nM, read-out: %Control): 89%; remaining binding at 1 µM (TRKA; read-out: %Control @1000nM): 89%; difference in %Control from compound Ib at 1 µM (FLT3(D835H); @1000nM): 38%; remaining binding at 1 µM (FLT3(D835H); @1000nM, read-out: %Control): 74%; remaining binding at 1 µM (FLT3(D835H); read-out: %Control @1000nM): 74%
CCOC(=O)c1cnc(S(C)(=O)=O)nc1N1CCC[C@@H](n2nc(-c3ccc(Oc4ccccc4)cc3)c3c(N)ncnc32)C1 [Compound 8c, Ethyl (R)-4-(3-(4-Amino-3-(4-phenoxyphenyl)-1H-pyrazolo[3,4-d]pyrimidin-1-yl)piperidin-1-yl)-2-(methylsulfonyl)pyrimidine-5-carboxylate] | 74% | 71.4% | 74% | -3% | 77% | 77% | 73% | 100% | 100% | essentially inactive | 94.5% | 100% | 100% | < 1% | 25% | 25% | 25% | 100% | 100% | 8% | remaining binding at 1 µM (TRKA; @1000nM, read-out: %Control): 93%; remaining binding at 1 µM (TRKA; read-out: %Control @1000nM): 93%; difference in %Control from compound Ib at 1 µM (FLT3(D835H); @1000nM): 60%; remaining binding at 1 µM (FLT3(D835H); @1000nM, read-out: %Control): 96%; remaining binding at 1 µM (FLT3(D835H); read-out: %Control @1000nM): 96%
CNC(=O)c1cnc(S(C)(=O)=O)nc1N1CCCC(n2nc(-c3ccc(Oc4ccccc4)cc3)c3c(N)ncnc32)C1 (stereo not shown) [Compound 8d, 4-(3-(4-Amino-3-(4-phenoxyphenyl)-1H-pyrazolo[3,4-d]pyrimidin-1-yl)piperidin-1-yl)-N-methyl-2-(methylsulfonyl)pyrimidine-5-carboxamide] | 30% | 27.4% | 30% | -1% | 79% | 79% | 67% | 94% | 94% | induced apoptosis | 67.5% | 73% | 73% | 27% | 4% | 4% | 22% | 97% | 97% | -2% | fold lower apoptotic potency than Ibrutinib (TMD8 cells): ~10 fold; remaining binding at 1 µM (TRKA; @1000nM, read-out: %Control): 83%; remaining binding at 1 µM (TRKA; read-out: %Control @1000nM): 83%; difference in %Control from compound Ib at 1 µM (FLT3(D835H); @1000nM): 47%; remaining binding at 1 µM (FLT3(D835H); @1000nM, read-out: %Control): 83%; remaining binding at 1 µM (FLT3(D835H); read-out: %Control @1000nM): 83%
